Assay results published in patent US10703748B2, “Diazanaphthalen-3-yl carboxamides and preparation and use thereof” (Samumed, LLC, priority 2017, dated 2020).

How the values were obtained:
[1] = biological target: DYRK1A kinase (Homo sapiens, UniProt Q13627); assay: DYRK1A kinase activity (Ser/Thr 18 peptide Z-lyte FRET assay); assay type: biochemical; details: recombinant DYRK1A, 30 μM ATP, one hour at room temperature;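 further: kinase activity read as coumarin/fluorescein emission ratio after development step, with unphosphorylated and phosphorylated peptide forms setting 0% and 100% controls, values from dose-response curves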
[2] = biological target: GSK3β kinase (Homo sapiens, UniProt P49841); assay: GSK3β kinase activity (Ser/Thr 09 peptide Z-lyte FRET assay); assay type: biochemical; details: recombinant kinase, 46 μM ATP, one hour at room temperature; read-out: EC50
[3] = system: SW480 colon carcinoma cells; assay: Cell viability assay (CellTiter-Glo); details: Homo sapiens; for EC50: SW480, 96 h; for inhibition at 10 µM: SW480, read-out: percent inhibition at 10 μM
[4] = system: Wnt-responsive Sp5-Luc reporter in SW480 colon carcinoma cells; assay: Screening assay for Wnt activity (Sp5-Luc reporter gene assay); details: Homo sapiens; for EC50: SW480; for inhibition at 10 µM: SW480, read-out: percent inhibition at 10 μM
[5] = system: IL-6; assay: IL-6 inhibition in LPS-stimulated human peripheral blood mononuclear cells (HTRF); details: Homo sapiens, PBMC; for EC50: 22 h; for inhibition at 10 µM: read-out: percentage in parentheses after EC50 >10
[6] = system: α-smooth muscle actin (aSMA) positive LL29 cells; assay: Inhibition of the fibrotic process: αSMA staining in TGF-β1 treated LL29 fibroblasts from IPF patients; details: Homo sapiens, Fibroblast; for EC50: 96 h; for inhibition at 10 µM: read-out: percentage in parentheses after EC50 >10

Sequence of GSK3β kinase (P49841 whole entry): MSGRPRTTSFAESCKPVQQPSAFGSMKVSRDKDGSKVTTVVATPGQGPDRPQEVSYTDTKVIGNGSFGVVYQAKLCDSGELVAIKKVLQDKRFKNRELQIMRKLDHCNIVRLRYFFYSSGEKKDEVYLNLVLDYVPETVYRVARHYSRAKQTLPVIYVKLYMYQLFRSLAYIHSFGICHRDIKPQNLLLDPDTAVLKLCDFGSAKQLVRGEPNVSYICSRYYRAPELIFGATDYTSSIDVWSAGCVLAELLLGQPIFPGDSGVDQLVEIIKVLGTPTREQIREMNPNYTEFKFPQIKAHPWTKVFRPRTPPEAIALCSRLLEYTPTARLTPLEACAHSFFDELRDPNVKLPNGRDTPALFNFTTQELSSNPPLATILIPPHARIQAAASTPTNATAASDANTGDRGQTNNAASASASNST

SMILES	EC50 [1]	EC50 [2]	EC50 [3]	EC50 [4]	EC50 [5]	inhibition at 10 µM [3]	inhibition at 10 µM [4]	inhibition at 10 µM [5]	EC50 [6]	inhibition at 10 µM [6]
CC(C)CN1CCC(C(=O)Nc2cc3cc(-c4nnnn4C)cnc3cn2)CC1 [Compound 3118, 1-Isobutyl-N-(3-(1-methyl-1H-tetrazol-5-yl)-1,7-naphthyridin-6-yl) piperidine-4-carboxamide]	1.48 µM	> 10 µM	> 10 µM	> 10 µM	> 10 µM	8.3%	31.2%	5.3%	4.91 µM	–
CC(C(=O)Nc1cc2cc(-c3cncn3C)cnc2cn1)N1CCCC1 (stereo not drawn) [Compound 3134, N-(3-(1-Methyl-1H-imidazol-5-yl)-1,7-naphthyridin-6-yl)-2-(pyrrolidin-1-yl) propanamide]	2 µM	2.59 µM	> 10 µM	> 10 µM	> 10 µM	23.8%	10.2%	3.9%	> 10 µM	19.7%
CC(C)OCCC(=O)Nc1cc2cc(-c3cncn3C)cnc2cn1 [Compound 3136, 3-Isopropoxy-N-(3-(1-methyl-1H-imidazol-5-yl)-1,7-naphthyridin-6-yl) propanamide]	0.123 µM	0.982 µM	> 10 µM	> 10 µM	> 10 µM	18.4%	32%	9.8%	0.135 µM	–
Cc1ncc(C(=O)Nc2cc3cc(-c4cnc(C)n4C)cnc3cn2)s1 [Compound 3167, N-(3-(1,2-Dimethyl-1H-imidazol-5-yl)-1,7-naphthyridin-6-yl)-2-methylthiazole-5-carboxamide]	0.037 µM	> 10 µM	> 10 µM	> 10 µM	> 10 µM	8.1%	0%	5.4%	2.04 µM	–
CC(C)Oc1ccc(C(=O)Nc2cc3cc(-c4cnc5n4CCNC5)cnc3cn2)cc1 [Compound 3240, 4-Isopropoxy-N-(3-(5,6,7,8-tetrahydroimidazo[1,2-a]pyrazin-3-yl)-1,7-naphthyridin-6-yl)benzamide]	1.05 µM	> 10 µM	> 10 µM	> 10 µM	> 10 µM	18.6%	0%	10.5%	> 10 µM	15.9%
Cc1ncc(-c2cnc3cnc(NC(=O)c4ccnc(N5CCN(C)CC5)c4)cc3c2)s1 [Compound 3363, 2-(4-Methylpiperazin-1-yl)-N-(3-(2-methylthiazol-5-yl)-1,7-naphthyridin-6-yl)isonicotinamide]	0.119 µM	9.99 µM	3.96 µM	> 10 µM	> 10 µM	–	32.9%	5.6%	> 10 µM	34.7%
CN1CCN(c2cc(C(=O)Nc3cc4cc(-c5cnc(N)s5)cnc4cn3)ccn2)CC1 [Compound 3403, N-(3-(2-Aminothiazol-5-yl)-1,7-naphthyridin-6-yl)-2-(4-methylpiperazin-1-yl)isonicotinamide]	0.581 µM	> 10 µM	1.43 µM	0.849 µM	> 10 µM	–	–	1.8%	2.43 µM	–
CO[C@H]1CC[C@H](C(=O)Nc2cc3cc(-c4nnc(C)s4)cnc3cn2)CC1 [Compound 3425, trans-4-Methoxy-N-(3-(5-methyl-1,3,4-thiadiazol-2-yl)-1,7-naphthyridin-6-yl)cyclohexane-1-carboxamide]	0.157 µM	2.29 µM	> 10 µM	> 10 µM	> 10 µM	29.9%	0%	9%	> 10 µM	19.3%
Cc1nnc(-c2cnc3cnc(NC(=O)C4CCN(C(=O)c5ccccc5)CC4)cc3c2)s1 [Compound 3439, 1-Benzoyl-N-(3-(5-methyl-1,3,4-thiadiazol-2-yl)-1,7-naphthyridin-6-yl) piperidine-4-carboxamide]	0.1 µM	0.463 µM	> 10 µM	> 10 µM	> 10 µM	16.8%	2.1%	12.7%	> 10 µM	14.3%
Cc1nnc(-c2cnc3cnc(NC(=O)CN4C5CCC4CC5)cc3c2)s1 [Compound 3446, 2-(7-Azabicyclo[2.2.1]heptan-7-yl)-N-(3-(5-methyl-1,3,4-thiadiazol-2-yl)-1,7-naphthyridin-6-yl)acetamide]	2.09 µM	> 10 µM	> 10 µM	> 10 µM	> 10 µM	16.1%	29.9%	5.8%	> 10 µM	16.9%
Cc1nnc(-c2cnc3cnc(NC(=O)c4ccnc(N5CCN(C)CC5)c4)cc3c2)s1 [Compound 3470, N-(3-(5-Methyl-1,3,4-thiadiazol-2-yl)-1,7-naphthyridin-6-yl)-2-(4-methylpiperazin-1-yl)isonicotinamide]	0.11 µM	> 10 µM	3.96 µM	5.48 µM	> 10 µM	–	–	9.4%	3.23 µM	–
Cc1nnc(-c2cnc3cnc(NC(=O)c4ccnc(SC5CCN(C)CC5)c4)cc3c2)s1 [Compound 3474, N-(3-(5-Methyl-1,3,4-thiadiazol-2-yl)-1,7-naphthyridin-6-yl)-2-((1-methylpiperidin-4-yl)thio)isonicotinamide]	0.071 µM	> 10 µM	> 10 µM	> 10 µM	> 10 µM	17.1%	1.9%	3.9%	> 10 µM	37%

Second part, led by results:

EC50 [1]	EC50 [2]	EC50 [3]	EC50 [4]	EC50 [5]	SMILES	inhibition at 10 µM [3]	inhibition at 10 µM [4]	inhibition at 10 µM [5]	EC50 [6]	inhibition at 10 µM [6]
0.294 µM	> 10 µM	> 10 µM	> 10 µM	> 10 µM	CN1CCN(c2cc(C(=O)Nc3cc4cc(-c5ccc(N)nc5)cnc4cn3)ccn2)CC1 [Compound 3527, N-(3-(6-Aminopyridin-3-yl)-1,7-naphthyridin-6-yl)-2-(4-methylpiperazin-1-yl)isonicotinamide]	41.8%	42.5%	0%	3.5 µM	–
0.487 µM	> 10 µM	2.83 µM	3.92 µM	5.05 µM	O=C(Nc1cc2cc(-c3cncc(OCC4CNC4)n3)cnc2cn1)c1ccc(F)cc1 [Compound 3612, N-(3-(6-(Azetidin-3-ylmethoxy)pyrazin-2-yl)-1,7-naphthyridin-6-yl)-4-fluorobenzamide]	–	–	–	3.9 µM	–
1.01 µM	1.5 µM	> 10 µM	> 10 µM	> 10 µM	Cn1cc(-c2cc3cc(NC(=O)C(C)(C)F)ncc3cn2)nn1 [Compound 3960, 2-Fluoro-2-methyl-N-(6-(1-methyl-1H-1,2,3-triazol-4-yl)-2,7-naphthyridin-3-yl)propanamide]	38.5%	44.8%	7%	> 10 µM	23.5%
0.184 µM	0.305 µM	4.92 µM	0.76 µM	> 10 µM	Cn1cc(-c2cc3cc(NC(=O)C4CCN(CC5(C(F)(F)F)CC5)CC4)ncc3cn2)nn1 [Compound 3974, N-(6-(1-Methyl-1H-1,2,3-triazol-4-yl)-2,7-naphthyridin-3-yl)-1-((1-(trifluoromethyl)cyclopropyl)methyl)piperidine-4-carboxamide]	–	–	6.4%	2.02 µM	–
0.751 µM	1.24 µM	> 10 µM	> 10 µM	> 10 µM	COC1CCN(CC(=O)Nc2cc3cc(-c4cn(C)nn4)ncc3cn2)CC1 [Compound 3985, 2-(4-Methoxypiperidin-1-yl)-N-(6-(1-methyl-1H-1,2,3-triazol-4-yl)-2,7-naphthyridin-3-yl)acetamide]	34.9%	49.8%	5.2%	8.38 µM	–
0.454 µM	> 10 µM	> 10 µM	> 10 µM	> 10 µM	CNC(=O)c1ccc(C(=O)Nc2cc3cc(-c4cn(C)nn4)ncc3cn2)cn1 [Compound 3999, N^2-Methyl-N^5-(6-(1-methyl-1H-1,2,3-triazol-4-yl)-2,7-naphthyridin-3-yl) pyridine-2,5-dicarboxamide]	27.3%	22%	4.1%	> 10 µM	34.6%
0.056 µM	1.72 µM	> 10 µM	> 10 µM	> 10 µM	CN(C)C1CCN(c2cc(C(=O)Nc3cc4cc(-c5cn(C)nn5)ncc4cn3)ccn2)CC1 [Compound 4003, 2-(4-(Dimethylamino)piperidin-1-yl)-N-(6-(1-methyl-1H-1,2,3-triazol-4-yl)-2,7-naphthyridin-3-yl)isonicotinamide]	50.4%	34%	3.7%	> 10 µM	24.6%
